Reference: US8680113B2, “BMI-1 protein expression modulators” (PTC Therapeutics, Inc., priority 2008, dated 2014)
Structures can show the parent of a compound that is named as a salt.

Tests used:
[1] = test system: Bmi-1; assay: Sandwich ELISA Assay (Bmi-1 ELISA in HT-1080 cells); format: cell-based, human
How it was run: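 HT-1080 cells (8000/well) were treated with compounds in 0.5% final DMSO for 40-48 h at 37°C and then lysed. Bmi-1 in lysates was measured by sandwich ELISA: overnight capture at 4°C on mouse monoclonal, rabbit anti-Bmi-1 detection, HRP anti-rabbit, TMB. OD450 was read with an OD570 reference against a recombinant GST-Bmi-1 standard curve (0-8000 pg/mL).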

[2] = test system: MCL-Jeko; assay: Mantle Cell Lymphoma Assay: cytotoxicity, Jeko; format: cell-based; conditions: 72 hrs in culture
Source text: (§1) MCL cell lines Jeko, Mino, and Rec-1 were provided by American Type Culture Collection: The Bioresource Center (Manassas, Va.). […] Carlsbad, Calif.) in T-75 culture flasks. Cell concentration was maintained between 2 to 3×10^5 cells/mL. Early passage cells (passages 2-4) were used for all experiments. Ficoll-Histopaque density sedimentation (Sigma Aldrich) was used for separation of debris and purification of cell lines prior to experiments. […] The cytotoxic effect of test compounds on the MCL-cell lines was assessed by measuring cell concentration and cell viability using a Beckman Coulter Vi-Cell Counter. Controls and treated cells were harvested and counted at day 3.

[3] = test system: MCL-Mino; assay: Mantle Cell Lymphoma Assay: cytotoxicity, Mino; format: cell-based; conditions: 72 hrs in culture
Source text: as §1

[4] = test system: MCL-Rec1; assay: Mantle Cell Lymphoma Assay: cytotoxicity, Rec-1; format: cell-based; conditions: 72 hrs in culture
Source text: as §1

[5] = test system: MM cell line; assay: Multiple Myeloma Assay; format: cell-based; conditions: 72 hrs in culture
[6] = test system: Jeko, Mino and Rec-1 cells; assay: cells; format: cell-based; conditions: 72 h, read-out: decrease in cell viability
[7] = test system: Bmi-1; assay: Cell Model Assay: Bmi-1 expression in HT1080; format: cell-based, human; conditions: HT1080 (fibrosarcoma)
Description: (§2) Using assay conditions known to those skilled in the art, the ability of the compounds described herein to reduce Bmi-1 expression in HT1080 (fibrosarcoma), U87-MG (glioblastoma), T98G (glioblastoma), K562 (chronic myelogenous leukemia) and KG1 (acute myelogenous leukemia) cell lines was tested (at test compound concentrations calculated from the ELISA assay data shown in Example 1) compared to puromycin as a control to provide the EC50 values shown in Table 2. The term “ND” means that data was not determined.

[8] = test system: Bmi-1; assay: Cell Model Assay: Bmi-1 expression in U87-MG; format: cell-based; conditions: U87-MG (glioblastoma)
Description: as §2

[9] = test system: Bmi-1; assay: Cell Model Assay: Bmi-1 expression in T98G; format: cell-based; conditions: T98G (glioblastoma)
Description: as §2

[10] = test system: Bmi-1; assay: Cell Model Assay: Bmi-1 expression in K562; format: cell-based; conditions: K562 (chronic myelogenous leukemia)
Description: as §2

[11] = test system: Bmi-1; assay: Cell Model Assay: Bmi-1 expression in KG1; format: cell-based; conditions: KG1 (acute myelogenous leukemia)
Description: as §2

For `Cc1nc2ncccn2c1-c1csc(Nc2ccc(Cl)cc2)n1` [Cpd 49, N-(4-chlorophenyl)-4-(2-methylimidazo[1,2-a]pyrimidin-3-yl)-1,3-thiazol-2-amine], the IC50 [1] was under 500 nM, the “Cell Concentration, MCL-Jeko” value ([2]; dose 0.004 μM) was 1.83 ± 0.01 ×10^6 and the viability at 0.004 µM ([2]; dose 0.004 μM, read-out: Cell Viability, MCL-Jeko) was 74.33 ± 0.53%. The “Cell Concentration, MCL-Jeko” value ([2]; dose 0.037 μM) was 1.94 ± 0.06 ×10^6, the viability at 0.037 µM ([2]; dose 0.037 μM, read-out: Cell Viability, MCL-Jeko) was 74.7 ± 1.08% and the “Cell Concentration, MCL-Jeko” value ([2]; dose 0.11 μM) was 2.06 ± 0.04 ×10^6. The viability at 0.11 µM ([2]; dose 0.11 μM, read-out: Cell Viability, MCL-Jeko) was 78.73 ± 0.33%, the “Cell Concentration, MCL-Jeko” value ([2]; dose 0.33 μM) was 1.82 ± 0.06 ×10^6 and the viability at 0.33 µM ([2]; dose 0.33 μM, read-out: Cell Viability, MCL-Jeko) was 73.2 ± 0.58%. The “Cell Concentration, MCL-Jeko” value ([2]; dose 1 μM) was 0.66 ± 0.05 ×10^6, the viability at 1 µM ([2]; dose 1 μM, read-out: Cell Viability, MCL-Jeko) was 39.6 ± 2.28% and the “Cell Concentration, MCL-Jeko” value ([2]; dose 3 μM) was 0.06 ± 0.01 ×10^6. The viability at 3 µM ([2]; dose 3 μM, read-out: Cell Viability, MCL-Jeko) was 5.4 ± 0.61%, the viability at 0.004 µM ([3]; Homo sapiens, MINO, dose 0.004 μM, read-out: Cell Viability, MCL-Mino) was 94.7 ± 0.44% and the viability at 0.037 µM ([3]; Homo sapiens, MINO, dose 0.037 μM, read-out: Cell Viability, MCL-Mino) was 91.2 ± 1%. It also gave a viability at 0.11 µM ([3]; Homo sapiens, MINO, dose 0.11 μM, read-out: Cell Viability, MCL-Mino) of 75.6 ± 1.49%, a viability at 0.33 µM ([3]; Homo sapiens, MINO, dose 0.33 μM, read-out: Cell Viability, MCL-Mino) of 34.4 ± 2.46% and a viability at 1 µM ([3]; Homo sapiens, MINO, dose 1 μM, read-out: Cell Viability, MCL-Mino) of 15.3 ± 1.13%. For the same compound, the viability at 3 µM ([3]; Homo sapiens, MINO, dose 3 μM, read-out: Cell Viability, MCL-Mino) was 12.7 ± 1.47%, the “Cell Concentration, MCL-Mino” value ([3]; dose 0.004 μM) was 1.87 ± 0.04 ×10^6 and the “Cell Concentration, MCL-Mino” value ([3]; dose 0.037 μM) was 1.72 ± 0.09 ×10^6. For the same compound, the “Cell Concentration, MCL-Mino” value ([3]; dose 0.11 μM) was 0.97 ± 0.06 ×10^6, the “Cell Concentration, MCL-Mino” value ([3]; dose 0.33 μM) was 0.15 ± 0.06 ×10^6 and the “Cell Concentration, MCL-Mino” value ([3]; dose 1 μM) was 0.07 ± 0.01 ×10^6. For the same compound, the “Cell Concentration, MCL-Mino” value ([3]; dose 3 μM) was 0.06 ± 0.01 ×10^6, the viability at 0.004 µM ([4]; Homo sapiens, Rec1, dose 0.004 μM, read-out: Cell Viability, MCL-Rec1) was 89.2 ± 0.33% and the viability at 0.037 µM ([4]; Homo sapiens, Rec1, dose 0.037 μM, read-out: Cell Viability, MCL-Rec1) was 89.07 ± 0.33%. For the same compound, the viability at 0.11 µM ([4]; Homo sapiens, Rec1, dose 0.11 μM, read-out: Cell Viability, MCL-Rec1) was 90.07 ± 0.1%, the viability at 0.33 µM ([4]; Homo sapiens, Rec1, dose 0.33 μM, read-out: Cell Viability, MCL-Rec1) was 81.93 ± 0.03% and the viability at 1 µM ([4]; Homo sapiens, Rec1, dose 1 μM, read-out: Cell Viability, MCL-Rec1) was 51 ± 1.83%. For the same compound, the viability at 3 µM ([4]; Homo sapiens, Rec1, dose 3 μM, read-out: Cell Viability, MCL-Rec1) was 12 ± 0.95%, the “Cell Concentration, MCL-Rec1” value ([4]; dose 0.004 μM) was 0.83 ± 0.01 ×10^6 and the “Cell Concentration, MCL-Rec1” value ([4]; dose 0.037 μM) was 0.87 ± 0.01 ×10^6. The “Cell Concentration, MCL-Rec1” value ([4]; dose 0.11 μM) was 0.84 ± 0.01 ×10^6, the “Cell Concentration, MCL-Rec1” value ([4]; dose 0.33 μM) was 0.58 ± 0.00 ×10^6 and the “Cell Concentration, MCL-Rec1” value ([4]; dose 1 μM) was 0.21 ± 0.01 ×10^6. For the same compound, the “Cell Concentration, MCL-Rec1” value ([4]; dose 3 μM) was 0.04 ± 0.00 ×10^6, the “Cell Concentration, MM cell line” value ([5]; dose 0.004 μM) was 1.22 ± 0.05 ×10^6 and the viability at 0.004 µM ([5]; dose 0.004 μM) was 89.63 ± 0.35%. The “Cell Concentration, MM cell line” value ([5]; dose 0.037 μM) was 1.09 ± 0.05 ×10^6, the viability at 0.037 µM ([5]; dose 0.037 μM) was 89.53 ± 0.46% and the “Cell Concentration, MM cell line” value ([5]; dose 0.11 μM) was 0.85 ± 0.05 ×10^6. The viability at 0.11 µM ([5]; dose 0.11 μM) was 84.7 ± 0.88%, the “Cell Concentration, MM cell line” value ([5]; dose 0.33 μM) was 0.38 ± 0.01 ×10^6 and the viability at 0.33 µM ([5]; dose 0.33 μM) was 69.6 ± 0.85%. The “Cell Concentration, MM cell line” value ([5]; dose 1 μM) was 0.21 ± 0.01 ×10^6, the viability at 1 µM ([5]; dose 1 μM) was 55.5 ± 2.4% and the “Cell Concentration, MM cell line” value ([5]; dose 3 μM) was 0.22 ± 0.01 ×10^6. The viability at 3 µM ([5]; dose 3 μM) was 55.5 ± 1.79% and the cytotoxicity at 0.08 µM [6] was 70 to 90%.

For `Cc1nc2ncccn2c1-c1csc(Nc2ccc(N(C)C)cc2)n1` [Cpd 12, N,N-dimethyl-N′-(4-(2-methylimidazo[1,2-a]pyrimidin-3-yl)thiazol-2-yl)benzene-1,4-diamine], the IC50 [1] was under 500 nM, the EC50 [7] was 39 nM and the EC50 [8] was 110 nM. For the same compound, the EC50 [9] was under 4 nM, the EC50 [10] was 10 nM and the EC50 [11] was 216 nM.

`COc1cc(Cl)c(Nc2nc(-c3c(C)nc4ncccn34)cs2)c(Cl)c1` (as salt: HBr) [Cpd 19, N-(2,6-dichloro-4-methoxyphenyl)-4-(2-methylimidazo[1,2-a]pyrimidin-3-yl)thiazol-2-amine] gave a melting point of 232 to 240 °C.

Work on `COc1cc(C)c(Nc2nc(-c3cnc4ccc(Cl)cn34)cs2)c(C)c1` [Cpd 27, 4-(6-chloroimidazo[1,2-a]pyridine-3-yl)-N-(4-methoxy-2,6-dimethylphenyl)thiazol-2-amine] yielded an IC50 [1] of under 500 nM, an EC50 [7] of 410 nM and an EC50 [8] of 1200 nM. It also gave an EC50 [9] of 91 nM, an EC50 [10] of 55 nM and an EC50 [11] of 128 nM. For the same compound, the “Cell Concentration, MCL-Jeko” value ([2]; dose 0.004 μM) was 1.98 ± 0.03 ×10^6, the “Cell Concentration, MCL-Jeko” value ([2]; dose 0.037 μM) was 1.99 ± 0.02 ×10^6 and the “Cell Concentration, MCL-Jeko” value ([2]; dose 0.11 μM) was 1.96 ± 0.05 ×10^6. The “Cell Concentration, MCL-Jeko” value ([2]; dose 0.33 μM) was 1.77 ± 0.02 ×10^6, the “Cell Concentration, MCL-Jeko” value ([2]; dose 1 μM) was 1.46 ± 0.02 ×10^6 and the “Cell Concentration, MCL-Jeko” value ([2]; dose 3 μM) was 0.34 ± 0.04 ×10^6. For the same compound, the “Cell Concentration, MCL-Mino” value ([3]; dose 0.004 μM) was 0.62 ± 0.02 ×10^6, the “Cell Concentration, MCL-Mino” value ([3]; dose 0.037 μM) was 0.64 ± 0.01 ×10^6 and the “Cell Concentration, MCL-Mino” value ([3]; dose 0.11 μM) was 0.59 ± 0.03 ×10^6. The “Cell Concentration, MCL-Mino” value ([3]; dose 0.33 μM) was 0.57 ± 0.01 ×10^6, the “Cell Concentration, MCL-Mino” value ([3]; dose 1 μM) was 0.41 ± 0.00 ×10^6 and the “Cell Concentration, MCL-Mino” value ([3]; dose 3 μM) was 0.09 ± 0.00 ×10^6. For the same compound, the “Cell Concentration, MCL-Rec1” value ([4]; dose 0.004 μM) was 1.66 ± 0.06 ×10^6, the “Cell Concentration, MCL-Rec1” value ([4]; dose 0.037 μM) was 1.65 ± 0.03 ×10^6 and the “Cell Concentration, MCL-Rec1” value ([4]; dose 0.11 μM) was 1.63 ± 0.04 ×10^6. For the same compound, the “Cell Concentration, MCL-Rec1” value ([4]; dose 0.33 μM) was 1.53 ± 0.01 ×10^6, the “Cell Concentration, MCL-Rec1” value ([4]; dose 1 μM) was 1.24 ± 0.03 ×10^6 and the “Cell Concentration, MCL-Rec1” value ([4]; dose 3 μM) was 0.09 ± 0.01 ×10^6. The “Cell Concentration, MM cell line” value ([5]; dose 0.004 μM) was 1.46 ± 0.01 ×10^6, the “Cell Concentration, MM cell line” value ([5]; dose 0.037 μM) was 1.36 ± 0.07 ×10^6 and the “Cell Concentration, MM cell line” value ([5]; dose 0.11 μM) was 1.30 ± 0.01 ×10^6. The “Cell Concentration, MM cell line” value ([5]; dose 0.33 μM) was 0.80 ± 0.01 ×10^6, the “Cell Concentration, MM cell line” value ([5]; dose 1 μM) was 0.17 ± 0.00 ×10^6 and the “Cell Concentration, MM cell line” value ([5]; dose 3 μM) was 0.2 ± 0.05 ×10^6.
